DC50 and IC50 data for 13 compounds are collected here from patent US20240366770A1, “DEGRADATION OF BRUTON'S TYROSINE KINASE (BTK) BY CONJUGATION OF BTK INHIBITORS WITH E3 LIGASE LIGAND AND METHODS OF USE” (BeiGene Switzerland GmbH, priority 2021, published 2024).

Read-outs that look alike come from different tables or passages of the source.

Test [1] has as its target T1, BTK (Homo sapiens, UniProt Q06187).
T1 construct: High control=Cell group with added DMSO and without compound, indicating microplate readings without BTK degradation; endogenous in cells; host or cells: TMD-8
As to the kind of experiment: BTK degradation in TMD-8 cells (HTRF assay). The class given is cell-based. Particulars: 6 h treatment, IC50 (DC50) of BTK degradation. The protocol: TMD-8 cells were treated with compounds diluted in 0.2% DMSO, dilution was done according to the following protocol: (1) making 500× stock solution in DMSO from 1 mM by 6-fold dilution, total 8 doses were included; (2) making 2× solution in cell culture medium by transferring 0.5 μl 500× stock solution into 125 μl medium; (3) adding 15 μl of 2× solution to cells for incubation of 6 h.
After 6 h treatment, 10 μl 4× lysis buffer was added to each well; the plate was sealed and incubated for 30 min at room temperature on a plate shaker; Once the cells was lysed, 16 μL of cell lysate were transferred to a PE 384-well HTRF detection plate; 4 μL of pre-mixed HTRF antibodies were added to each well; the plate was covered with a plate sealer, and then spinned at 1000 rpm for 1 min, then incubated overnight at room temperature; the results were read on BMG PheraStar with HTRF protocol (337 nm-665 nm-620 nm).
The IC50 (DC50) value of a compound can be obtained by fitting the following equation
(§1) wherein, X and Y are known values, and IC50, Hillslope, Top and Bottom are the parameters obtained by fitting with software. Y is the inhibition percentage (calculated from the equation), X is the concentration of the compound; IC50 is the concentration of the compound when the 50% inhibition is reached. The smaller the IC50 value is, the stronger the inhibitory ability of the compound is. Vice versa, the higher the IC50 value is, the weaker the ability the inhibitory ability of the compound is; Hillslope represents the slope of the fitted curve, generally around 1 *; Bottom represents the minimum value of the curve obtained by data fitting, which is generally 0%±20%; Top represents the maximum value of the curve obtained by data fitting, which is generally 100%±20%. The experimental data were fitted by calculating and analyzing with Dotmatics data analysis software.
For orientation: In TR-FRET formats the signal depends on donor and acceptor labels being close together.

Test [2] deals with HEK-293 cells. As to the kind of experiment: HEK-293 cytotoxicity detection (CellTiter-Glo). The class given is cell-based. Particulars: HEK-293 cells, 72 h incubation, CellTiter-Glo luminescence, IC50 of cell proliferation inhibition, read-out: HEK293. The protocol:
HEK-293 cells were treated with compounds diluted in 0.2% DMSO, dilution was done according to the following protocol: (1) making 500× stock solution in DMSO from 5 mM by 4-fold dilution, total 8 doses were included; (2) making 2× solution in cell culture medium by transferring 0.5 ul 500× stock solution into 125 μl medium; (3) adding 50 μl of 2× solution to cells for incubation of 72 h.
25 μl of the CellTiter-Glo®Reagent [(Promega) -Cat No. G7572] was added to each well in the 96-well plate. The contents were mixed for 2 minutes on an orbital shaker to induce cell lysis. The plate was then allowed to incubate at room temperature for 10 minutes to stabilize luminescent signal. Luminescence was recorded on BMG PheraStar with luminescence protocol.
The IC50 value of a compound can be obtained by fitting the following equation
as §1, with “Wherein,” for “wherein,”

T1 sequence (Q06187 whole entry): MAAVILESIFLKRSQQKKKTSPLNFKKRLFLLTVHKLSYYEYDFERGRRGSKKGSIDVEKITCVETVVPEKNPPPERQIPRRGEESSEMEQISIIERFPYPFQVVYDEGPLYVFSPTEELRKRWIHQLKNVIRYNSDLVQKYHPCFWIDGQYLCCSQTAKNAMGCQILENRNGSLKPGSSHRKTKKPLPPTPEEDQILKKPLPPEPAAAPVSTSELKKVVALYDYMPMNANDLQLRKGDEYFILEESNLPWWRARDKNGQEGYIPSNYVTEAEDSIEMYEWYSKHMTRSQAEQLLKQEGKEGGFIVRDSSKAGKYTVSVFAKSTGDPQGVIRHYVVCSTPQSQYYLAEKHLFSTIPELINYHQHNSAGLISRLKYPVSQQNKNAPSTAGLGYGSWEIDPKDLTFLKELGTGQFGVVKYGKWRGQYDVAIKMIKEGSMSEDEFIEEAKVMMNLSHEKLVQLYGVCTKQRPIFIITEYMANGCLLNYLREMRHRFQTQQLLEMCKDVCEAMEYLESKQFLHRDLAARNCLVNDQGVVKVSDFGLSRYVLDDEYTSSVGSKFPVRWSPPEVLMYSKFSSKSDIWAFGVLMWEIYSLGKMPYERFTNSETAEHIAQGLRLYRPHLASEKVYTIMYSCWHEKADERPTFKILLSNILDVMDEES

In the case of “5-(tert-butyl)-N—((R)-1-(4-(7-(4-(3-(4-((R)-2,6-dioxopiperidin-3-yl)phenyl)cyclobutyl)piperazin-1-yl)-9H-pyrimido[4,5-b]indol-4-yl)-3-fluoro-2-methylphenyl)ethyl)-1,2,4-oxadiazole-3-carboxamide [Example 32]”, in test [1], the DC50 is 9.03 nM. Also, the IC50 in test [2] was greater than 10000 nM.
As for `Cc1cc(-c2ncnc3[nH]c4cc(N5CCC6(CC5)CCN(C5CC(c7ccc(C8CCC(=O)NC8=O)cc7)C5)C6)ccc4c23)ccc1[C@@H](C)NC(=O)c1nc(C(C)(C)C)no1` (stereo in doubt) [Example 101, 3-(tert-butyl)-N—((R)-1-(4-(7-(2-(3-(4-((R)-2,6-dioxopiperidin-3-yl)phenyl)cyclobutyl)-2,8-diazaspiro[4.5]decan-8-yl)-9H-pyrimido[4,5-b]indol-4-yl)-2-methylphenyl)ethyl)-1,2,4-oxadiazole-5-carboxamide], the DC50 in test [1] came to 1.52 nM. Further, in test [2] (Homo sapiens), the IC50 amounted to 956 nM.
As for `Cc1cc(-c2ncnc3[nH]c4ccc(N5CCN(CC6CCN(c7ccc(N8CCC(=O)NC8=O)cc7)CC6)CC5)cc4c23)ccc1CNC(=O)c1nc(C(C)(C)C)no1` [Example 1, 3-(tert-butyl)-N-(4-(6-(4-((1-(4-(2,4-dioxotetrahydropyrimidin-1(2H)-yl)phenyl)piperidin-4-yl)methyl)piperazin-1-yl)-9H-pyrimido[4,5-b]indol-4-yl)-2-methylbenzyl)-1,2,4-oxadiazole-5-carboxamide], the 50% degradation concentration (DC50) in test [1] is 4.94 nM. Moreover, the IC50 in test [2] (Homo sapiens) was greater than 10000 nM.
For the compound `Cc1cc(-c2ncnc3[nH]c4ccc(C5CCN(CC6CCN(c7ccc(N8CCC(=O)NC8=O)cc7)CC6)CC5)cc4c23)ccc1CNC(=O)c1nc(C(C)(C)C)no1` [Example 2, 3-(tert-butyl)-N-(4-(6-(1-((1-(4-(2,4-dioxotetrahydropyrimidin-1(2H)-yl)phenyl)piperidin-4-yl)methyl)piperidin-4-yl)-9H-pyrimido[4,5-b]indol-4-yl)-2-methylbenzyl)-1,2,4-oxadiazole-5-carboxamide], the DC50 in test [1] was greater than 2000 nM. Also, the IC50 in test [2] (Homo sapiens) is 3950 nM.
Take `Cc1cc(-c2ncnc3[nH]c4cc(C5CCN(CCCOc6ccc(NC7CCC(=O)NC7=O)cc6)CC5)ccc4c23)ccc1CNC(=O)c1nc(C(C)(C)C)no1` (centres unmarked) [Example 3, 3-(tert-butyl)-N-(4-(7-(1-(3-(4-((2,6-dioxopiperidin-3-yl)amino)phenoxy)propyl)piperidin-4-yl)-9H-pyrimido[4,5-b]indol-4-yl)-2-methylbenzyl)-1,2,4-oxadiazole-5-carboxamide]: the DC50 in test [1] was 2.15 nM. Further, in test [2] (Homo sapiens), the IC50 was greater than 10000 nM.
`Cc1cc(-c2ncnc3[nH]c4cc(C5CCN(CC6CCN(c7ccc(N8CCC(=O)NC8=O)cc7)CC6)CC5)ccc4c23)ccc1CNC(=O)c1nc(C(C)(C)C)no1` [Example 4, 3-(tert-butyl)-N-(4-(7-(1-((1-(4-(2,4-dioxotetrahydropyrimidin-1(2H)-yl)phenyl)piperidin-4-yl)methyl)piperidin-4-yl)-9H-pyrimido[4,5-b]indol-4-yl)-2-methylbenzyl)-1,2,4-oxadiazole-5-carboxamide]: half-maximal degradation in test [1] (DC50) was put at 0.294 nM. The IC50 in test [2] (Homo sapiens) was found to be 3660 nM.
Consider `Cc1cc(-c2ncnc3[nH]c4cc(C5CCN(CC6CCN(c7ccc(N8CCC(=O)NC8=O)cc7)CC6)CC5)ccc4c23)ccc1[C@@H](C)NC(=O)c1nc(C(C)(C)C)no1` [Example 5, (R)-3-(tert-butyl)-N-(1-(4-(7-(1-((1-(4-(2,4-dioxotetrahydropyrimidin-1(2H)-yl)phenyl)piperidin-4-yl)methyl)piperidin-4-yl)-9H-pyrimido[4,5-b]indol-4-yl)-2-methylphenyl)ethyl)-1,2,4-oxadiazole-5-carboxamide], for which, in test [1], the DC50 amounted to 0.731 nM. The IC50 in test [2] (Homo sapiens) was 3250 nM.
In test [1], `Cc1cc(-c2ncnc3[nH]c4cc(N5CCN(CC6CCN(c7ccc(N8CCC(=O)NC8=O)cc7)CC6)CC5)ccc4c23)ccc1[C@@H](C)NC(=O)c1nc(C(C)(C)C)no1` [Example 6, (R)-3-(tert-butyl)-N-(1-(4-(7-(4-((1-(4-(2,4-dioxotetrahydropyrimidin-1(2H)-yl)phenyl)piperidin-4-yl)methyl)piperazin-1-yl)-9H-pyrimido[4,5-b]indol-4-yl)-2-methylphenyl)ethyl)-1,2,4-oxadiazole-5-carboxamide] came in with a 50% degradation concentration (DC50) of 0.394 nM. Besides, the IC50 in test [2] (Homo sapiens) is greater than 10000 nM.
In the case of `Cc1cc(-c2ncnc3[nH]c4cc(N5CCN(CC6CCN(c7ccc(N8CCC(=O)NC8=O)cn7)CC6)CC5)ccc4c23)ccc1[C@@H](C)NC(=O)c1nc(C(C)(C)C)no1` [Example 7, (R)-3-(tert-butyl)-N-(1-(4-(7-(4-((1-(5-(2,4-dioxotetrahydropyrimidin-1(2H)-yl)pyridin-2-yl)piperidin-4-yl)methyl)piperazin-1-yl)-9H-pyrimido[4,5-b]indol-4-yl)-2-methylphenyl)ethyl)-1,2,4-oxadiazole-5-carboxamide], the DC50 in test [1] turned out to be 1.27 nM. Further, in test [2] (Homo sapiens), the IC50 is greater than 10000 nM.
The compound `Cc1cc(-c2ncnc3[nH]c4cc(N5CCN(CC6CCN(c7ccc(N8CCC(=O)NC8=O)c(C)c7)CC6)CC5)ccc4c23)ccc1[C@@H](C)NC(=O)c1nc(C(C)(C)C)no1` [Example 8, (R)-3-(tert-butyl)-N-(1-(4-(7-(4-((1-(4-(2,4-dioxotetrahydropyrimidin-1(2H)-yl)-3-methylphenyl)piperidin-4-yl)methyl)piperazin-1-yl)-9H-pyrimido[4,5-b]indol-4-yl)-2-methylphenyl)ethyl)-1,2,4-oxadiazole-5-carboxamide] yielded a DC50 in test [1] of 0.481 nM. The IC50 in test [2] (Homo sapiens) is greater than 10000 nM.
The matching figures for `Cc1cc(-c2ncnc3[nH]c4cc(C5=CCN(CC6CCN(c7ccc(N8CCC(=O)NC8=O)cc7)CC6)C5)ccc4c23)ccc1[C@@H](C)NC(=O)c1nc(C(C)(C)C)no1` [Example 10, (R)-3-(tert-butyl)-N-(1-(4-(7-(1-((1-(4-(2,4-dioxotetrahydropyrimidin-1(2H)-yl)phenyl)piperidin-4-yl)methyl)-2,5-dihydro-1H-pyrrol-3-yl)-9H-pyrimido[4,5-b]indol-4-yl)-2-methylphenyl)ethyl)-1,2,4-oxadiazole-5-carboxamide]: 1.51 nM and greater than 10000 nM.
In test [1], `Cc1cc(-c2ncnc3[nH]c4cc(-c5ccn(CC6CCN(c7ccc(N8CCC(=O)NC8=O)cc7)CC6)c5)ccc4c23)ccc1[C@@H](C)NC(=O)c1nc(C(C)(C)C)no1` [Example 11, (R)-3-(tert-butyl)-N-(1-(4-(7-(1-((1-(4-(2,4-dioxotetrahydropyrimidin-1(2H)-yl)phenyl)piperidin-4-yl)methyl)-1H-pyrrol-3-yl)-9H-pyrimido[4,5-b]indol-4-yl)-2-methylphenyl)ethyl)-1,2,4-oxadiazole-5-carboxamide] yielded a half-maximal degradation concentration (DC50) of 9.78 nM. For the same compound, the IC50 in test [2] (Homo sapiens) was greater than 10000 nM.
Take `Cc1cc(-c2ncnc3[nH]c4cc(C5CCN(CC6CCN(c7ccc(N8CCC(=O)NC8=O)cc7)CC6)C5)ccc4c23)ccc1[C@@H](C)NC(=O)c1nc(C(C)(C)C)no1` (stereo partly drawn) [Example 12, 3-(tert-butyl)-N-((1R)-1-(4-(7-(1-((1-(4-(2,4-dioxotetrahydropyrimidin-1(2H)-yl)phenyl)piperidin-4-yl)methyl)pyrrolidin-3-yl)-9H-pyrimido[4,5-b]indol-4-yl)-2-methylphenyl)ethyl)-1,2,4-oxadiazole-5-carboxamide]: in test [1], the DC50 was determined as 0.613 nM. For the same compound, in test [2] (Homo sapiens), the IC50 stood at 3640 nM.

Broadly, the DC50 is the concentration giving 50% degradation. A high value points to degradation only at high concentration.
